Laboratory results as given in PubChem BioAssay (NCI).
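Grown in 96-well plates, cells were treated for 48 hours with each compound at five concentrations. Insufficient inhibition: endpoint recorded as highest concentration tested. At the TGI there is no net growth.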

What was measured:
Test in all cases: NCI anticancer screen, dose series, 48 h
[1] = tested on: TK-10 renal
[2] = tested on: HOP-62 NSCLC
[3] = tested on: MDA-MB-435
[4] = tested on: OVCAR-4 ovarian
[5] = tested on: PC-3 prostate
[6] = tested on: HS 578T breast
[7] = tested on: A549 NSCLC
[8] = tested on: MALME-3M melanoma
[9] = tested on: RPMI-8226 leukemia
[10] = tested on: NCI-H226 lung
[11] = tested on: 786-0 renal
[12] = tested on: SF-268 CNS
[13] = tested on: SK-OV-3 ovarian
[14] = tested on: SK-MEL-28 melanoma
[15] = tested on: SF-539 CNS
[16] = tested on: U251 CNS
[17] = tested on: OVCAR-8 ovarian
[18] = tested on: KM12 colon
[19] = tested on: SK-MEL-5 melanoma
[20] = tested on: MOLT-4 leukemia
[21] = tested on: CAKI-1 renal
[22] = tested on: M14 melanoma
[23] = tested on: IGROV1 ovarian
[24] = tested on: MDA-N
[25] = tested on: SK-MEL-2 melanoma
[26] = tested on: OVCAR-5 ovarian
[27] = tested on: NCI-H522 lung
[28] = tested on: EKVX NSCLC
[29] = tested on: SN12C renal
[30] = tested on: T-47D breast
[31] = tested on: HT29 colon
[32] = tested on: UO-31 renal
[33] = tested on: MDA-MB-231 breast
[34] = tested on: SR leukemia
[35] = tested on: UACC-257 melanoma
[36] = tested on: A498 renal
[37] = tested on: RXF 393 renal
[38] = tested on: NCI-H460 lung
[39] = tested on: HL-60(TB) leukemia
[40] = tested on: LOX IMVI melanoma
[41] = tested on: DU-145 prostate
[42] = tested on: SNB-75 CNS
[43] = tested on: ACHN renal
[44] = tested on: HCC-2998 colon
[45] = tested on: HOP-92 NSCLC
[46] = tested on: K-562 leukemia
[47] = tested on: OVCAR-3 ovarian
[48] = tested on: SW-620 colon
[49] = tested on: CCRF-CEM leukemia
[50] = tested on: MCF7 breast
[51] = tested on: NCI-H23 lung
[52] = tested on: SF-295 CNS
[53] = tested on: SNB-19 CNS
[54] = tested on: NCI/ADR-RES ovarian
[55] = tested on: HCT-15 colon
[56] = tested on: HCT-116 colon
[57] = tested on: UACC-62 melanoma
[58] = tested on: COLO 205 colon
[59] = tested on: BT-549 breast

Compound: Cc1ccc2c(=O)cc(-c3ccc(Cl)cc3)[nH]c2n1
- TGI [1]: > 100 µM
- TGI [2]: > 100 µM
- TGI [3]: 5.5 µM
- TGI [4]: > 100 µM
- TGI [5]: > 20.8 µM
- TGI [6]: > 100 µM
- TGI [7]: > 100 µM
- TGI [8]: > 31.3 µM
- TGI [9]: > 49.1 µM
- TGI [10]: 82 µM
- TGI [11]: > 100 µM
- TGI [12]: > 100 µM
- TGI [13]: > 100 µM
- TGI [14]: > 100 µM
- TGI [15]: 36.8 µM
- TGI [16]: > 59.9 µM
- TGI [17]: > 100 µM
- TGI [18]: > 100 µM
- TGI [19]: 14.6 µM
- TGI [20]: > 43.3 µM
- TGI [21]: > 65.9 µM
- TGI [22]: > 100 µM
- TGI [23]: > 100 µM
- TGI [24]: 5.56 µM
- TGI [25]: > 100 µM
- TGI [26]: > 100 µM
- TGI [27]: > 100 µM
- TGI [28]: > 100 µM
- TGI [29]: > 94.8 µM
- TGI [30]: 26.3 µM
- TGI [31]: > 29.4 µM
- TGI [32]: > 66.8 µM
- TGI [33]: 19.7 µM
- TGI [34]: > 100 µM
- TGI [35]: > 67.7 µM
- TGI [36]: > 100 µM
- TGI [37]: > 100 µM
- TGI [38]: > 100 µM
- TGI [39]: 8.8 µM
- TGI [40]: > 100 µM
- TGI [41]: > 55.4 µM
- TGI [42]: > 27.9 µM
- TGI [43]: > 100 µM
- TGI [44]: > 63 µM
- TGI [45]: > 100 µM
- TGI [46]: 29.1 µM
- TGI [47]: > 30.2 µM
- TGI [48]: > 100 µM
- TGI [49]: > 100 µM
- TGI [50]: > 100 µM
- TGI [51]: > 100 µM
- TGI [52]: 53.8 µM
- TGI [53]: > 100 µM
- TGI [54]: > 28.3 µM
- TGI [55]: > 41.3 µM
- TGI [56]: > 32.1 µM
- TGI [57]: > 100 µM

Compound: COc1ccc(-c2cc(-c3ccccc3)nc(N)c2-c2ccc3ccccc3c2)cc1
- TGI [1]: 11.6 µM
- TGI [2]: 4.8 µM
- TGI [3]: 4.68 µM
- TGI [4]: 2.42 µM
- TGI [58]: 3.21 µM
- TGI [5]: 5.45 µM
- TGI [7]: 5.39 µM
- TGI [8]: 2.75 µM
- TGI [9]: 4.74 µM
- TGI [10]: 2.99 µM
- TGI [11]: 3.1 µM
- TGI [12]: 9.2 µM
- TGI [13]: 17.4 µM
- TGI [17]: 3.09 µM
- TGI [18]: 3.2 µM
- TGI [19]: 3.27 µM
- TGI [20]: 7.38 µM
- TGI [21]: 15.1 µM
- TGI [22]: 5.68 µM
- TGI [23]: 3.11 µM
- TGI [24]: 3.17 µM
- TGI [25]: 3.88 µM
- TGI [26]: 3.71 µM
- TGI [59]: 3.09 µM
- TGI [28]: 3.66 µM
- TGI [29]: 3.43 µM
- TGI [30]: 3.38 µM
- TGI [31]: 2.28 µM
- TGI [32]: 5.13 µM
- TGI [33]: 3.17 µM
- TGI [34]: 7.31 µM
- TGI [35]: 3.52 µM
- TGI [36]: 5.08 µM
- TGI [37]: 3.39 µM
- TGI [38]: 2.9 µM
- TGI [40]: 3.1 µM
- TGI [42]: 5 µM
- TGI [43]: 4.77 µM
- TGI [44]: 3.29 µM
- TGI [45]: 2.91 µM
- TGI [46]: > 100 µM
- TGI [47]: 5.08 µM
- TGI [49]: > 100 µM
- TGI [50]: 3.36 µM
- TGI [51]: 3.71 µM
- TGI [53]: 2.57 µM
- TGI [55]: 2.92 µM
- TGI [56]: 2.5 µM
- TGI [57]: 2.96 µM

Compound: CCc1c(-c2ccccc2)[nH]c2ccccc2c1=O
- TGI [1]: > 100 µM
- TGI [2]: > 100 µM
- TGI [3]: > 100 µM
- TGI [4]: > 100 µM
- TGI [7]: > 100 µM
- TGI [8]: > 100 µM
- TGI [9]: > 100 µM
- TGI [10]: 84 µM
- TGI [12]: > 100 µM
- TGI [13]: > 100 µM
- TGI [14]: > 100 µM
- TGI [15]: > 100 µM
- TGI [16]: > 100 µM
- TGI [18]: > 100 µM
- TGI [19]: > 100 µM
- TGI [20]: > 100 µM
- TGI [21]: > 100 µM
- TGI [22]: > 100 µM
- TGI [24]: > 100 µM
- TGI [25]: > 100 µM
- TGI [26]: > 100 µM
- TGI [59]: > 100 µM
- TGI [28]: > 100 µM
- TGI [29]: > 100 µM
- TGI [30]: > 100 µM
- TGI [31]: > 100 µM
- TGI [32]: 0.266 µM
- TGI [33]: > 100 µM
- TGI [34]: > 100 µM
- TGI [35]: > 100 µM
- TGI [36]: > 100 µM
- TGI [37]: > 100 µM
- TGI [38]: > 100 µM
- TGI [39]: > 100 µM
- TGI [40]: > 100 µM
- TGI [41]: > 100 µM
- TGI [43]: > 100 µM
- TGI [44]: > 100 µM
- TGI [46]: > 100 µM
- TGI [47]: > 100 µM
- TGI [49]: > 100 µM
- TGI [50]: > 100 µM
- TGI [51]: > 100 µM
- TGI [53]: > 100 µM
- TGI [55]: > 100 µM
- TGI [56]: > 100 µM
- TGI [57]: > 100 µM
